In US12458688B2, “Epitopes” (Scancell Limited, priority 2018, dated 2025):
Where no end group is shown, it is not given here. [ ]: non-standard residue; d: D form. hCit = NC(=O)NCCCC[C@H](N)C(=O)O

System: HLA-HHDII/DP4 mice
Test: Ex vivo IFNγ ELISpot after peptide immunisation, HHDII/DP4 mice
Assay type: in vivo, mouse
Details: for IFNγ ELISpot response: 3 immunisations with CpG/MPLA, day 21
Experimental: C57BL/6 mice (Charles River, UK), HLA-DR4 mice (Model #4149, Taconic, USA), HLA-A2/DR1 (HHDII/DR1, Pasteur Institute), HLA-A2.1+/+HLA-DP4+/+hCD4+/+ (HLA-HHDII/DP4) transgenic mice (EM: 02221, European Mouse Mutant Archive) described in patent WO2013/017545 A1 (EMMA repository, France) were used, aged between 8 and 12 weeks. Peptides were dissolved in PBS to 1 mg/ml and then emulsified (a series of dilutions) with CpG ODN 1826 and MPLA 6 μg/mouse of each (Invivogen, UK). Peptides (25 μg/mouse) were injected subcutaneously at the base of the tail. Mice were immunised at days 1, 7 and 14 for peptide immunisation. Spleens were removed for analysis at day 21 unless stated otherwise.
ELISpot assays were performed using murine IFNγ, IL-17 and IL-10 capture and detection reagents according to the manufacturer's instructions (Mabtech, Sweden). In brief, anti-IFNγ, IL-17 and IL-10 specific antibodies were coated onto wells of 96-well Immobilin-P plate. Synthetic peptides (at various concentrations) and 5×10^5 per well splenocytes were added to wells of the plate in quadruplicate Tumour target cells were added where relevant at 5×10^4/well in triplicate and plates incubated for 40 hrs at 37° C. After incubation, captured IFNγ, IL-10 and IL-17 were detected by biotinylated anti-IFNγ, IL-10 and IL-17 antibodies and developed with a streptavidin alkaline phosphatase and chromogenic substrate. Lipopolysaccharide (LPS; 5 μg/ml) was used as a positive control. For MHC blocking studies, anti-CD4 blocking antibody (GK1.5) or anti-CD4 blocking antibody (RPA-T4) for HHDII/DP4 mice which express human CD4 and anti-CD8 blocking antibody (2.43) from Bioxcell were used at 20 μg/ml. Spots were analysed and counted using an automated plate reader (Cellular Technologies Ltd).
Screening was performed to identify potential homocitrullinated ALDOA epitopes in transgenic HHDII/DP4 and HHDII/DR1 mice. Mice were immunised with pools of human homocitrullinated peptides. […] Each pool was administered as three immunisations containing 20 μg of each peptide and CpG/MPLA as an adjuvant. After 21 days the mice were culled and the immune responses to each peptide within the immunising pool were assessed by ex vivo ELISpot in HHDII/DP4 (FIG. 4b) and HHDII/DR1 mice (FIG. 4d). […] Our predictions therefore identified 3/5 peptides which could induce a T cell response. […] Of the responding peptides ALDOA 74-93 Hcit and 140-157 Hcit peptides are homologous in human and mice therefore these two peptides were selected for further investigation. Minimal IL-10 (FIG. 6b) or IL-17 (FIG. 6c) responses were seen to Aldolase peptides in HHDII/DP4 mice.
Using this combination of predictions, 5 CyK8 peptides containing homocitrulline were synthesised (Table 4). Screening was performed to identify potential homocitrullinated Cyk8 epitopes in transgenic HHDII/DP4. Mice were immunised with pools of human homocitrullinated peptides. […] Each pool was administered as three immunisations containing 20 μg of each peptide and CpG/MPLA as an adjuvant. After 21 days the mice were culled and the immune responses to each peptide within the immunising pool were assessed by ex vivo ELISpot in HHDII/DP4 (FIG. 10a). […] The responses to CyK8 101-120 Hcit, 112-131 Hcit, 182-201 Hcit, 371-388 Hcit and 381-399 Hcit immunisation were characterised for cross reactivity to the wt peptide sequence. […] Thus a key characteristic of immunogenic peptides is they express homocitrulline. All of these peptides (100%) were immunogenic. Thus a high predicted HLA-DP4 binding affinity (<30), the presence of homocitrulline residues in the core region, the peptide being amphipathic in nature with a predominantely spiral conformational structure upon 3D modelling, and the existence of homology between the mouse and human sequences defines immunogenicity. When this model was applied retrospectively to include the vimentin and ALDOA peptides 8/9 (88%) were correctly predicted. […]

Row | Substance | IFNγ ELISpot response | IFNγ response in presence of CD4 blocking antibody | IFNγ response in presence of CD8 blocking antibody | cross reactivity of Hcit response to wt peptide
1 | NYID-Hcit-VRFLEQQN-Hcit-ILLAEL (NYID[hCit]VRFLEQQN[hCit]ILLAEL) [Vimentin 116-135 Hcit] | no IFNγ responses were observed | – | – | –
2 | EIN-hcit-RTEMENEFVLI-hcit-hcit-DVDE (EIN[hCit]RTEMENEFVLI[hCit][hCit]DVDE) [Cyk8 182-202 Hcit] | stimulation of IFNγ responses | – | – | –
3 | LEQQN-hcit-MLET-hcit-WSLLQQQ-hcit-T (LEQQN[hCit]MLET[hCit]WSLLQQQ[hCit]T) [Cyk8 112-131 Hcit] | stimulation of IFNγ responses | not with CD4 blocking antibody | inhibited | significantly higher
4 | LREYQELMNV-hcit-LALDIEI (LREYQELMNV[hCit]LALDIEI) [Cyk8 371-388 Hcit] | – | inhibited | – | significantly higher
5 | IGGVILFHETLYQ-hcit-ADDGRP (IGGVILFHETLYQ[hCit]ADDGRP) [Aldolase A 74-93 Hcit] | stimulation of IFNγ responses | significantly reduced | – | limited responses
6 | KFASFID-Hcit-VRFLEQQN-Hcit-MLE (KFASFID[hCit]VRFLEQQN[hCit]MLE) [Cyk8 101-120 Hcit] | stimulation of IFNγ responses | inhibited | – | –
7 | HACTQ-hcit-FSH(N)EEIAMATVTA (HACTQ[hCit]FSHNEEIAMATVTA; not fully specified; printed as HACTQ-hcit-FSH(N)EEIAMATVTA) [Aldolase A 238-256 Hcit] | stimulation of IFNγ responses | – | – | –
8 | hcit-DGADFA-hcit-WRCVL-hcit-IGEH ([hCit]DGADFA[hCit]WRCVL[hCit]IGEH) [Aldolase A 140-157 Hcit] | stimulation of IFNγ responses | significantly reduced | – | limited responses
9 | hcit-LALDIEIATYR-hcit-LLEGEE ([hCit]LALDIEIATYR[hCit]LLEGEE) [Cyk8 381-399 Hcit] | stimulation of IFNγ responses | – | – | significantly higher
